Like-named read-outs stand apart in the source and are kept apart here.
Legend:
[1] = tested on: MiaPaca-2 cells; test: MiaPaca-2 cell proliferation assay (resazurin); format: cell-based; conditions: Table 5; read-out: MiaPaca-2
[2] = target: T1, B-Raf kinase (Homo sapiens, UniProt P15056); test: Biochemical assay for B-Raf (coupled pyruvate kinase/lactate dehydrogenase)
T1 construct: purchased Sigma

[3] = tested on: HPAF-II cells; test: HPAF-II cell proliferation assay (resazurin); format: cell-based
In short: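 Serial compound dilutions in triplicate with 750 cells/well in complete MEM with 10% FBS, 115 to 120 h at 37° C, 5% CO2. Resazurin then added for 18 to 24 h; fluorescence at ex 540/em 600 nm used to derive IC50.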

[4] = target: T2, C-Raf kinase (Homo sapiens, UniProt P04049, Y340D/Y341D); test: Biochemical assay for C-Raf (coupled pyruvate kinase/lactate dehydrogenase)
T2 construct: C-Raf residues 306-end; Y340D, Y341D with N-; purchased Sigma

[5] = tested on: tubulin polymerization in HCT-116 cells; test: Cellular tubulin polymerization assay (pellet/supernatant a-tubulin, HCT-116 cells); format: cell-based
Description: HCT-116 cells (catalog #CCL-247) are obtained from the American Type Culture Collect (ATCC, Manassas, VA). Briefly, cells are grown in McCoy's 5A supplemented with 10% characterized fetal bovine serum (Invitrogen, Carlsbad, CA) and 1% Penicillin/Streptomycin/L-Glutamine at 37° C., 5% CO2, and 95% humidity. Cells are expanded until reaching 70-95% confluency at which point they are sub-cultured or harvested for assay use. 450000 cells are added per well in 1500 μL complete growth medium in a tissue culture treated, 12-well plate. Plates are incubated for 18 to 24 h at 37° C., 5% CO2, and 95% humidity. At the end of the incubation, 2000 μL of base culture media is added to each well, followed by a serial dilution of compound. Plates are incubated for an additional 1 h at 37° C., 5% CO2, and 95% humidity. Lysates are generated by the addition of 100 μL Lysis and Microtubule Stabilization Buffer 1 (LMS01, Cytoskeleton Inc, Denver, CO) supplemented with GTP (BST06, Cytoskeleton Inc), ATP (BSA04, Cytoskeleton Inc), and Protease Inhibitor Cocktail Stock (PIC02, Cytoskeleton Inc). Cells are scraped off wells using a rubber cell scraper and collected in a clean 96-well plate. Lysates are centrifuged at 1000×g, 37° C. for 10 min and supernatant fraction is placed into an additional 96-well plate. The remaining pellet fraction is reconstituted in 100 μL LMS01 buffer and sonicated for 10 min. Pellet and Supernatant fractions are probed for a-tubulin via western blot analysis on the Jess System or equivalent (Bio-techne, Minneapolis, MN). Data is analyzed using Prism software (Graphpad, San Diego, CA) to calculate IC50 values.

[6] = tested on: HCT-116 cells; test: HCT-116 cell proliferation assay (resazurin); format: cell-based
In short: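 HCT-116 cells, 375 per well in McCoy's 5A with 10% FBS, exposed to serially diluted compound in triplicate for 67-72 h at 37 °C. Resazurin added for 4-5 h more; fluorescence (ex 540/em 600 nm) fitted to IC50.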

[7] = target: T3, Porcine Brain Tubulin (Sus scrofa, UniProt P02550+P02554); test: Biochemical tubulin polymerization assay
T3 construct: Porcine Brain Tubulin (T240); purchased Cytoskeleton, Inc T240; BK011P; host or cells: porcine brain
T3 sequence (P02550 whole entry): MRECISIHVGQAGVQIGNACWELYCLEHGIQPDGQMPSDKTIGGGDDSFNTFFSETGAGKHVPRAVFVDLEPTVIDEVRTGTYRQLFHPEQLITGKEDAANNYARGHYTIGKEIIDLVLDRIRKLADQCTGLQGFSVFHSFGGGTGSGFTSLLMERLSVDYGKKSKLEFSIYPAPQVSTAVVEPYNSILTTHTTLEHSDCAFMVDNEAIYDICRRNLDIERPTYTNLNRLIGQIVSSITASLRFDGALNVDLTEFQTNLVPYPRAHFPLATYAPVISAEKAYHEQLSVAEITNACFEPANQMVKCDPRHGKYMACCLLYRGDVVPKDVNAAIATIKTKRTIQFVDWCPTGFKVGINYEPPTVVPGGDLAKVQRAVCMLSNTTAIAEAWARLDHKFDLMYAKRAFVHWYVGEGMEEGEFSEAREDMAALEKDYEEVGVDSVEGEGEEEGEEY
T3 sequence (P02554 whole entry): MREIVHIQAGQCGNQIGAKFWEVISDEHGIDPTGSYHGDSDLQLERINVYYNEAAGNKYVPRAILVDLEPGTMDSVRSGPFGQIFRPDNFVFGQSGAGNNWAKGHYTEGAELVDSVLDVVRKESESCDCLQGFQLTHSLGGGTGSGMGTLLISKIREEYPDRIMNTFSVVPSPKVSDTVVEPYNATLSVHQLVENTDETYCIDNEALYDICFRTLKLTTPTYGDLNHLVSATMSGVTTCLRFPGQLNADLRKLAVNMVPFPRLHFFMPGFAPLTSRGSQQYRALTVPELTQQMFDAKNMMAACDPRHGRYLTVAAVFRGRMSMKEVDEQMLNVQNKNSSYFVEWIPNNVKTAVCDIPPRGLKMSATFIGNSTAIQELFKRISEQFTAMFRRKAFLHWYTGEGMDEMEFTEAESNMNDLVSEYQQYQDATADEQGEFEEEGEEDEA

T1 sequence (P15056 416-766): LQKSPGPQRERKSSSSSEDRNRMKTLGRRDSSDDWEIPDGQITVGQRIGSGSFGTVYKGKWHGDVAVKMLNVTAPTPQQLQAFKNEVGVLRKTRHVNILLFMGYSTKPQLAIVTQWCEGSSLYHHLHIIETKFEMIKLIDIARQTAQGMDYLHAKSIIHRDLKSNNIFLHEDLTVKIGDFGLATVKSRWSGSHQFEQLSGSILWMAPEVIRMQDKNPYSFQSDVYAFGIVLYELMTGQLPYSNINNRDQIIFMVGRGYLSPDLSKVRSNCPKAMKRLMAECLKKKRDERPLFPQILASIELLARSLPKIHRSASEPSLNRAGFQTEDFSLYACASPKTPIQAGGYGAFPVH

| Compound | IC50 [1] [nM] | IC50 ([2]; Table 5, read-out: BRAF) [nM] | IC50 ([3]; Table 5, read-out: HPAF-II) [nM] | IC50 ([4]; Table 5, read-out: CRAF) [nM] | IC50 ([5]; Table 5, HCT-116 cells, read-out: Tubulin Cellular) [nM] | IC50 ([6]; Table 5, read-out: HCT-116) [nM] | IC50 ([7]; Table 5, read-out: Tubulin Biochem) [nM] | IC50 ([2]; Table 4, read-out: BRAF IC50) [nM] | IC50 ([3]; Homo sapiens, HPAF-II, Table 4, read-out: HPAF-II IC50) [nM] | IC50 ([4]; Table 4, read-out: CRAF IC50) [nM] | IC50 ([5]; Table 4, HCT-116 cells, read-out: Tubulin Cellular IC50) [nM] | IC50 ([6]; Homo sapiens, HCT-116, Table 4, read-out: HCT-116 IC50) [nM] | IC50 ([7]; Table 4, read-out: Tubulin Biochem IC50) [nM] |
| --- | --- | --- | --- | --- | --- | --- | --- | --- | --- | --- | --- | --- | --- |
| Belvarafenib [reference compound] | 1000 to 10000 | < 100 | 1000 to 10000 | < 100 | 1000 to 10000 | 500 to 1000 | > 100000 |  |  |  |  |  |  |
| CNC(=O)c1cc(-c2cc(-c3cc(NC(=O)c4ccnc(C(C)(C)F)c4)ccc3C)ccn2)ccn1 [reference compound] |  |  |  |  |  |  |  | < 100 | 1000 to 10000 | < 100 | 1000 to 10000 | 500 to 1000 | > 100000 |

From patent US20260176260A1, “DUAL RAF AND TUBULIN INHIBITORS AND METHODS OF USE THEREOF” (Deciphera Pharmaceuticals, LLC, priority 2023, published 2026)
